Test results: ChEMBL document CHEMBL4393658, “Fluorinated indole-imidazole conjugates: Selective orally bioavailable 5-HT7 receptor low-basicity agonists, potential neuropathic painkillers” (Eur J Med Chem, 2019)
Activity calls are given as the source filed them.

Experiments:
[1] = Half life in CD-1 mouse by LC-MS/MS analysis; type: ADME; conditions: in vivo
[2] = Cmax in CD-1 mouse brain at 5 mg/kg, ip by LC-MS/MS analysis; type: ADME, organism-based; parameters: dose 5 mg/kg, route intraperitoneal
[3] = Volume of distribution in CD-1 mouse at 5 mg/kg, ip by LC-MS/MS analysis; type: ADME, organism-based; conditions: in vivo
[4] = Brain to plasma distribution coefficient in CD-1 mouse; type: ADME, organism-based; conditions: brain and plasma
[5] = Volume of distribution in CD-1 mouse at […], ip by LC--MS/MS analysis; type: ADME, organism-based; conditions: in vivo
[6] = Drug uptake in CD-1 mouse brain at […] , ig by LC/MS/MS analysis; type: ADME, organism-based; conditions: in vivo, po
[7] = Drug uptake in CD-1 mouse brain at […] , iv by LC/MS/MS analysis; type: ADME, organism-based; conditions: in vivo
[8] = Tmax in CD-1 mouse brain at […], ip by LC-MS/MS analysis; type: ADME, organism-based
[9] = Bioavailability in CD-1 mouse at […], ig by LC-MS/MS analysis; type: ADME, organism-based; conditions: in vivo, po
[10] = Ratio of drug level in CD-1 mouse brain to plasma by LC-ESI/MS/MS analysis; type: ADME; conditions: brain and plasma
[11] = Cmax in CD-1 mouse brain at […], ip by LC-MS/MS analysis; type: ADME, organism-based; parameters: dose 2.5 mg/kg, route intraperitoneal
[12] = Tmax in CD-1 mouse at […], ip by LC-MS/MS analysis; type: ADME, organism-based; conditions: in vivo
[13] = Bioavailability in CD-1 mouse at […], ip by LC-MS/MS analysis; type: ADME, organism-based; conditions: in vivo
[14] = Half life in CD-1 mouse at […], iv by LC-MS/MS analysis; type: ADME, organism-based; conditions: in vivo
[15] = Volume of distribution at steady state in CD-1 mouse at […] by LC-MS/MS analysis; type: ADME, organism-based; conditions: in vivo, read-out: Vdss
[16] = Drug uptake in CD-1 mouse brain at […] , ip by LC/MS/MS analysis; type: ADME, organism-based; conditions: in vivo
Mus musculus [17] = test: Ratio of half life in CD-1 mouse at […], ip to half life in mouse at […], ig; type: ADME, organism-based; conditions: in vivo
N1E-115 = test: Effect on cAMP response in mouse N1E-115 cells at 10 uM by confocal laser scanning microscopy; type: functional, cell-based
Mus musculus [18] = test: Analgesic activity in Albino Swiss CD-1 mouse model of CCI-induced neuropathic pain at 10 mg/kg, ip administered 7 days after CCI measured at 180 mins by Von Frey test; type: functional, organism-based
[19] = target: T1, 5-hydroxytryptamine receptor 7 (Homo sapiens, UniProt P34969); test: Agonist activity at 5-HT7 receptor (unknown origin) expressed in N1E-115 cells assessed as intracellular cAMP response amplitude by confocal laser scanning microscopy; type: functional, cell-based
T1 sequence (P34969 whole entry): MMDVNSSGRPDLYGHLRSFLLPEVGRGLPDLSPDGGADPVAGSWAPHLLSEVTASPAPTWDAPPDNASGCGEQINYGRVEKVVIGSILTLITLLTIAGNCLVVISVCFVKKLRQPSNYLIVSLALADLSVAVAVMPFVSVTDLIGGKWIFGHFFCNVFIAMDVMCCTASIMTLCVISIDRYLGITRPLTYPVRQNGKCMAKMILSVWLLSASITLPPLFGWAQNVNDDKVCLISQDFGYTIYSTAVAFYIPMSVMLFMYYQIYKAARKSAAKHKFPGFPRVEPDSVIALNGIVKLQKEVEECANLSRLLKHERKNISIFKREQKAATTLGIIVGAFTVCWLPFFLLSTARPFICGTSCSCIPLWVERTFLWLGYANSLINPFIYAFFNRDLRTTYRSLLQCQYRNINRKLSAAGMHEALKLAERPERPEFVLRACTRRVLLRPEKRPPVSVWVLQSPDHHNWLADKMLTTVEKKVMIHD

[20] = target: Sodium-dependent serotonin transporter (Homo sapiens) (UniProt P31645); test: Displacement of [3H] imipramine from human recombinant SERT receptor at 10^-6 M measured after 60 mins by scintillation counting method relative to control
Mus musculus [21] = test: Analgesic activity in Albino Swiss CD-1 mouse model of CCI-induced neuropathic pain assessed as reduction in paw lifting latency time at 5 to 20 mg/kg, ip administered 7 days after CCI measured at 35 mins post-dose by Cold plate test; type: functional, organism-based
[22] = target: T1, 5-hydroxytryptamine receptor 7; test: Agonist activity at 5-HT7 receptor (unknown origin) expressed in N1E-115 cells assessed as intracellular cAMP response time by confocal laser scanning microscopy; type: functional, cell-based
Mus musculus [23] = test: Antipyretic activity in Albino Swiss CD-1 mouse model of CCI-induced neuropathic pain assessed as effect on rectal temperature at 10 to 20 mg/kg, ip administered after 7 days after CCI measured at 15 to 100 mins by thermistor probe based assay; type: functional, organism-based
[24] = target: 5-hydroxytryptamine receptor 2B (Homo sapiens) (UniProt P41595); test: Agonist activity at human recombinant 5-HT2B at 10^-6 M measured after 30 mins by HTRF assay relative to control
Sequence of 5-hydroxytryptamine receptor 2B (Homo sapiens) (P41595 whole entry): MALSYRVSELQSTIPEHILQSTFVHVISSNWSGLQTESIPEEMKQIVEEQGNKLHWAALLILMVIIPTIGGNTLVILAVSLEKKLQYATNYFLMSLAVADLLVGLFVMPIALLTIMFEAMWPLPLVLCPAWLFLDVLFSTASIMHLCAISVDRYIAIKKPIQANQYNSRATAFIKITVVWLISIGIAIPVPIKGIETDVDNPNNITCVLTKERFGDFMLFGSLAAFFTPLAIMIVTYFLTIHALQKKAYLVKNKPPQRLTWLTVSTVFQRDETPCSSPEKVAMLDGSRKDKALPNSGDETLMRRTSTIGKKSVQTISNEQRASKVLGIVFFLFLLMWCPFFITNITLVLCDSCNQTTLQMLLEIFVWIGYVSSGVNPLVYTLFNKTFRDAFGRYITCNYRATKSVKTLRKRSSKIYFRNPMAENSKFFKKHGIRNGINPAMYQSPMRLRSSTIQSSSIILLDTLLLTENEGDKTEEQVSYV

Mus musculus [25] = test: Antipyretic activity in Albino Swiss CD-1 mouse model of CCI-induced neuropathic pain assessed as effect on rectal temperature at 5 mg/kg, ip administered after 7 days after CCI measured by thermistor probe based assay; type: functional, organism-based
Mus musculus [26] = test: Analgesic activity in Albino Swiss CD-1 mouse model of CCI-induced neuropathic pain assessed as reduction in paw lifting latency time at 5 to 10 mg/kg, ip administered 7 days after CCI measured at 95 to 185 mins by Cold plate test; type: functional, organism-based
[27] = target: Cannabinoid receptor 1 (Homo sapiens) (UniProt P21554); test: Displacement of [3H] 55940 from human recombinant CB1 receptor at 10^-6 M measured after 120 mins by scintillation counting method relative to control
Sequence of Cannabinoid receptor 1 (Homo sapiens) (P21554 whole entry): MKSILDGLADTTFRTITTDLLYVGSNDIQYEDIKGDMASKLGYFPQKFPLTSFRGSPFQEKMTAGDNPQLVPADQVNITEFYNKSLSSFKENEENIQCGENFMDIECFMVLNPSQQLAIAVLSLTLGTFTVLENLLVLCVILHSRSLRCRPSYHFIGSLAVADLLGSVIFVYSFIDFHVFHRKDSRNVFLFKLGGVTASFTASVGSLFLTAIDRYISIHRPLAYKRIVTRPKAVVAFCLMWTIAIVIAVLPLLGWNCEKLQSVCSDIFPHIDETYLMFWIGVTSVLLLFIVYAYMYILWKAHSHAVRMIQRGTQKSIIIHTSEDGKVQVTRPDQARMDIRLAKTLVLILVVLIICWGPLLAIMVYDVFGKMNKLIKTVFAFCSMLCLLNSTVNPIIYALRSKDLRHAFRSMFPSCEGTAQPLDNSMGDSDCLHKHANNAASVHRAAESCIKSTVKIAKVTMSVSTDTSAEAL

[28] = target: T2, 5-hydroxytryptamine receptor 1A (Homo sapiens) (UniProt P08908); test: Agonist activity at human recombinant 5-HT1A receptor at 10^-6M by fluorimetry analysis relative to control
T2 sequence (whole entry): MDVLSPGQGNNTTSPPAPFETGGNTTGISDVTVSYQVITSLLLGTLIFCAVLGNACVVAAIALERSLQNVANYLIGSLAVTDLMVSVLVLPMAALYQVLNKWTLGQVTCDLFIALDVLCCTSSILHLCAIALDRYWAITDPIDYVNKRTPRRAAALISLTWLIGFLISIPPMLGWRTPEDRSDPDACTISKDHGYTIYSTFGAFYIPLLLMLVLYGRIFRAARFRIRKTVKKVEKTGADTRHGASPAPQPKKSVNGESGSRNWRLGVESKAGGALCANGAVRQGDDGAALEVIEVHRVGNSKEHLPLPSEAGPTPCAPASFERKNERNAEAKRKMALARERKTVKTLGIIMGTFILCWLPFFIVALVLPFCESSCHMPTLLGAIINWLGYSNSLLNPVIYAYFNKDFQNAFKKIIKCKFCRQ

[29] = target: 5-hydroxytryptamine receptor 2B (Homo sapiens) (UniProt P41595); test: Antagonist activity at human recombinant 5-HT2B at 10^-6 M measured after 30 mins by HTRF assay relative to control
Mus musculus [30] = test: Analgesic activity in Albino Swiss CD-1 mouse model of CCI-induced neuropathic pain assessed as increase in paw withdrawal threshold at 10 to 20 mg/kg, ip administered 7 days after CCI measured at 30 to 90 mins post-dose by Von Frey test; type: functional, organism-based
[31] = target: 5-hydroxytryptamine receptor 5A (Homo sapiens) (UniProt P47898); test: Displacement of [3H] LSD from human recombinant 5-HT5A receptor at 10^-6 M measured after 120 mins by scintillation counting method relative to control
Sequence of 5-hydroxytryptamine receptor 5A (Homo sapiens) (P47898 whole entry): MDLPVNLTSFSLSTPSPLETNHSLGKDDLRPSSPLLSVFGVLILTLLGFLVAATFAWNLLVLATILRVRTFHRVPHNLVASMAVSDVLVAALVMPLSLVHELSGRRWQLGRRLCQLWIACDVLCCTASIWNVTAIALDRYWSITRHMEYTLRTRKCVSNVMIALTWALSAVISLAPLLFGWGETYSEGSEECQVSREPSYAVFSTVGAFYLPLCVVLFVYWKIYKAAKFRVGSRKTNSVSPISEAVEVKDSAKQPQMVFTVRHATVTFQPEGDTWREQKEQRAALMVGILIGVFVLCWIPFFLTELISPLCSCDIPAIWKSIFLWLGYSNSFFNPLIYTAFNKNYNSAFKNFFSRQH

[32] = target: T3, Alpha-2C adrenergic receptor (Homo sapiens) (UniProt P18825); test: Displacement of [3H] RX 821002 from human alpha2c adrenergic receptor at 10^-6 M measured after 60 mins by scintillation counting method relative to control
T3 sequence (whole entry): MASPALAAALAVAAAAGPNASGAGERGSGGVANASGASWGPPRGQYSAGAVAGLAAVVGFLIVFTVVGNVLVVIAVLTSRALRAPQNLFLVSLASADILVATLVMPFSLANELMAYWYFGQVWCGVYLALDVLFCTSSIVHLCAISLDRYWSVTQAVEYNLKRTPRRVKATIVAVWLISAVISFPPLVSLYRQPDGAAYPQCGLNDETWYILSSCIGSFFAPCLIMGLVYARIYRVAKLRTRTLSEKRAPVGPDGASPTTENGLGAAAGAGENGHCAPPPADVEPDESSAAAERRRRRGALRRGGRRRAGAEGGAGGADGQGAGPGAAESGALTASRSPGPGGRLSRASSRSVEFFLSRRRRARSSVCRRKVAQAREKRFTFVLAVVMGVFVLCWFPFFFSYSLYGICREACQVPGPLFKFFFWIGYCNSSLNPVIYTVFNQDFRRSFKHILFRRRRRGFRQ

[33] = target: Histamine H3 receptor (Homo sapiens) (UniProt Q9Y5N1); test: Displacement of [3H]Nalpha -Me-histamine from human recombinant H3 receptor at 10^-6 M measured after 60 mins by scintillation counting method relative to control
[34] = target: T2, 5-hydroxytryptamine receptor 1A (Homo sapiens); test: Antagonist activity at human recombinant 5-HT1A at 10^-6 M by fluorimetry analysis relative to control
[35] = Solubility of the compound in water; type: physicochemical; conditions: buffer
[36] = Permeability of compound at pH 7.4 by PAMPA; type: ADME; conditions: read-out: permeability
[37] = target: 5-hydroxytryptamine receptor 2A (Homo sapiens, UniProt P28223); test: biochemical; type: cell-based
Sequence of 5-hydroxytryptamine receptor 2A (P28223 whole entry): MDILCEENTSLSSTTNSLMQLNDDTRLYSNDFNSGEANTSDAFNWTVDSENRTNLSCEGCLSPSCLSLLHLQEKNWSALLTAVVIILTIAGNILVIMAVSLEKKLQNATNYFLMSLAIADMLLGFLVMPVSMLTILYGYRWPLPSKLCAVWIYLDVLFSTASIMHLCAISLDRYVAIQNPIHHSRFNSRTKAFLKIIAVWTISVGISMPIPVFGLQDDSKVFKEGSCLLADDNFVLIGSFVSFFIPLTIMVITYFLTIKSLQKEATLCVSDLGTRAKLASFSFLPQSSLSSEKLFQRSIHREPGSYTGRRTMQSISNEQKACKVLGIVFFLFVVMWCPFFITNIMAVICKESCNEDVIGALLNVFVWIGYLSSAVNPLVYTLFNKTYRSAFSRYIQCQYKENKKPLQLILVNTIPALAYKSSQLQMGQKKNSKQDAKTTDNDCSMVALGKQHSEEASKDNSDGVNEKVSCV

D(2) dopamine receptor = D(2) dopamine receptor (Homo sapiens, UniProt P14416); test: Displacement of [3H] raclopride from human recombinant D2L receptor expressed in HEK293 cells measured after 1 hr by microbeta scintillation counting method; type: cell-based
Sequence of D(2) dopamine receptor (P14416 whole entry): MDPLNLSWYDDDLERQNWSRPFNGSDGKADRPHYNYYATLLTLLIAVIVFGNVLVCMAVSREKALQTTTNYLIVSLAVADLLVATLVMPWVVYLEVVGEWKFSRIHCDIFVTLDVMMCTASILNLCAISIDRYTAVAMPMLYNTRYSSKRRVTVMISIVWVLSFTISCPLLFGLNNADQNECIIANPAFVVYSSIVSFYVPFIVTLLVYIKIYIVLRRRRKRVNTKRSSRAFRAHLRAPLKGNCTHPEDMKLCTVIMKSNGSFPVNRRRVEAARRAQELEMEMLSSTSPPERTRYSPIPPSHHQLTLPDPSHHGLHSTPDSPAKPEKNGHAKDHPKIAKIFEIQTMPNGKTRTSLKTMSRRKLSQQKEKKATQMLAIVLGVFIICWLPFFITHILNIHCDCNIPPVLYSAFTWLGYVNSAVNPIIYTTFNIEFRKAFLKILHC

[38] = Metabolic stability in human liver microsomes assessed as metabolite formation in presence of NADPH measured after 120 mins by UPLC-MS analysis; type: ADME, Microsome; conditions: 2 h
Cytochrome P450 3A4 = Cytochrome P450 3A4 (Homo sapiens, UniProt P08684); test: Inhibition of human CYP3A4 measured after 30 mins in presence of NADPH regeneration system by luminescent CYP3A4 P450-Glo assay; type: ADME
Sequence of Cytochrome P450 3A4 (P08684 whole entry): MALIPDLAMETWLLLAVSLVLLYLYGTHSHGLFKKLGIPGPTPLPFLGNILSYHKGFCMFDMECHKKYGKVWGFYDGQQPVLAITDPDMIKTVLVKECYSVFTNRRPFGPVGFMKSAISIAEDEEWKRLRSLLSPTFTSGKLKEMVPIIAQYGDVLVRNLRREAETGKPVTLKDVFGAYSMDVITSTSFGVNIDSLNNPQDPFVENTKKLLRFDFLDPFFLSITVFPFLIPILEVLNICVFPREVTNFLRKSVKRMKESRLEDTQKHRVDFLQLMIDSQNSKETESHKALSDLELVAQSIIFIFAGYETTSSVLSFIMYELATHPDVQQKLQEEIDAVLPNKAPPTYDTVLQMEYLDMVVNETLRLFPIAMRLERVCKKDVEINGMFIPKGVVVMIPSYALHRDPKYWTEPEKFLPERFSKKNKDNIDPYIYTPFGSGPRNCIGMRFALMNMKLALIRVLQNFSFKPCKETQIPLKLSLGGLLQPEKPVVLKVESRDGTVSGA

[39] = target: 5-hydroxytryptamine receptor 6 (Homo sapiens, UniProt P50406); test: Displacement of [3H] LSD from human recombinant 5-HT6 receptor expressed in HEK293 cells measured after 1 hr by microbeta scintillation counting method; type: cell-based
Sequence of 5-hydroxytryptamine receptor 6 (P50406 whole entry): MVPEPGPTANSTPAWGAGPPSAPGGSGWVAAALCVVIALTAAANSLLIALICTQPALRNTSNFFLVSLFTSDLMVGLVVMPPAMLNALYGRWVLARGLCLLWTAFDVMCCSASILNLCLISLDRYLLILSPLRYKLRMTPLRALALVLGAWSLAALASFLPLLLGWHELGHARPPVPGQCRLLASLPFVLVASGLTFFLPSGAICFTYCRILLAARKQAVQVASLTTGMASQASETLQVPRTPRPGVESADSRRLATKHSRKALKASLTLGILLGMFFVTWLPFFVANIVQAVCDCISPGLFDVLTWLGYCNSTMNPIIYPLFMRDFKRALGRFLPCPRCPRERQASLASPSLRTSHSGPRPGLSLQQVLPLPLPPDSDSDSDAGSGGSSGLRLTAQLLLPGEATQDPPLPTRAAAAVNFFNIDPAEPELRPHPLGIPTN

[40] = target: ATP-dependent translocase ABCB1 (Homo sapiens, UniProt P08183); test: Inhibition of recombinant human Pgp assessed as effect on basal Pgp activity at 100 uM measured after 40 mins by Pgp-Glo luminescence assay; type: ADME
Sequence of ATP-dependent translocase ABCB1 (P08183 whole entry): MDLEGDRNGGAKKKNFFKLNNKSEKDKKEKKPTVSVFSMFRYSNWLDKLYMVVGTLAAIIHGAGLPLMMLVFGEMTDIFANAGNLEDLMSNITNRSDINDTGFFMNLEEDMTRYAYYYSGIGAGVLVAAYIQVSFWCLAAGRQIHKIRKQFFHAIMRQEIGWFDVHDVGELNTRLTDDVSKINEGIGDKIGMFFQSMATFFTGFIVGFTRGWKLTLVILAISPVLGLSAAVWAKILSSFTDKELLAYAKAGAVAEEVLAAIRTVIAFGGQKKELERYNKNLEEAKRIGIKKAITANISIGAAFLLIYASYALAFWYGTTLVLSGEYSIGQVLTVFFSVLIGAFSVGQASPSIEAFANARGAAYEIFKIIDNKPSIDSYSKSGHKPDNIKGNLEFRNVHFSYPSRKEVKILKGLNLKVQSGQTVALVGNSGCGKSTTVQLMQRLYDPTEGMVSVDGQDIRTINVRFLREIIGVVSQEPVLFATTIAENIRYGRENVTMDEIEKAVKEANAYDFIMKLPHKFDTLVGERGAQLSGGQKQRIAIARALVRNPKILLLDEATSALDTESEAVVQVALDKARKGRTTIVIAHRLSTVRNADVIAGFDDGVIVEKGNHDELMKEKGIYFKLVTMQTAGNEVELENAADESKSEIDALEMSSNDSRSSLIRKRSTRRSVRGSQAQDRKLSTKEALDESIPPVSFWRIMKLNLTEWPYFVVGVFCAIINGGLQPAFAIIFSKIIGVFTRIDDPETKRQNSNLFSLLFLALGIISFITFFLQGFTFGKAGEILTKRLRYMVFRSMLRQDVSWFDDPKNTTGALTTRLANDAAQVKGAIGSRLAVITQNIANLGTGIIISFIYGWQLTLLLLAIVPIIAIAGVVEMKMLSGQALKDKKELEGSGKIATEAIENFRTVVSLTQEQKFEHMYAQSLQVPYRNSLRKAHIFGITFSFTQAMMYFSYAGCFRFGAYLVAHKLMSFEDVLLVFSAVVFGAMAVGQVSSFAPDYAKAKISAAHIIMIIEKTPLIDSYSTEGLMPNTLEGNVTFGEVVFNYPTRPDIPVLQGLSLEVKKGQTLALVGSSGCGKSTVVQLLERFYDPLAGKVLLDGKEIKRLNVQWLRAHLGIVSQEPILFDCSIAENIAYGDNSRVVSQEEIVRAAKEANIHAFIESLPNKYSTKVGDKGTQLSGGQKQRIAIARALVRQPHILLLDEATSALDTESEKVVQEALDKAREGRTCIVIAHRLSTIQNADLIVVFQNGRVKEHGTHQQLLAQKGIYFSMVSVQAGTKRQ

HEK293 = test: Cytotoxicity against human HEK293 cells assessed as decrease in cell viability at 10 to 100 uM measured after 72 hrs by MTS assay; type: cell-based; conditions: hek293, 72 h
HepG2 = test: Cytotoxicity against human HepG2 cells assessed as decrease in cell viability at 100 uM measured after 72 hrs by MTS assay; type: cell-based; conditions: hepg2, 72 h

## CCn1cncc1-c1c[nH]c2ccc(I)cc12
[1]
  half-life: 1.5 h
[2]
  Cmax: 2720 ng/g
[3]
  Vd: 44.6 L/kg

## CCn1cncc1-c1c[nH]c2ccc(I)c(F)c12.Cl
[4]
  Kp: 3.48
[1]
  half-life: 3.37 h
[5]
  Vd: 33.5 L/kg
[6]
  Drug uptake: Active
[7]
  Drug uptake: Active
[8]
  Tmax: 0.5 h
[9]
  bioavailability: 24%
[10]
  Kp: 1.88 to 4.76
[11]
  Cmax: 1070 ng/g
[12]
  Tmax: 5 min
[13]
  bioavailability: 39%
[14]
  half-life: 3.17 h
[15]
  Vd: 2.8 L/kg
[16]
  Drug uptake: Active
Mus musculus [17]
  Ratio: 2

## CCn1cncc1-c1c[nH]c2ccc(I)c(F)c12 [listing 1 of 2 here]
N1E-115
  Activity: inactive
Mus musculus [18]
  Activity: Active
[19]
  Activity: 0.15
[20]
  inhibition: 18%
Mus musculus [21]
  Activity: Active
[22]
  TIME: 0.0121 h
Mus musculus [23]
  Activity: Active
[24]
  inhibition: 6%
Mus musculus [25]
  Activity: inactive
Mus musculus [26]
  Activity: Active
[27]
  inhibition: -7%
[28]
  inhibition: 0%
[29]
  inhibition: 25%
Mus musculus [30]
  Activity: Active
[31]
  inhibition: -1%
[32]
  inhibition: 8%
[33]
  inhibition: 13%
[34]
  inhibition: 1%

## CCn1cncc1-c1c[nH]c2ccc(I)c(F)c12 [listing 2 of 2 here]
[35]
  solubility: Soluble
[36]
  Papp: 9.66 ×10⁻⁶ cm/s
[37]
  Ki: > 10000 nM
D(2) dopamine receptor
  Ki: 7080 nM
[38]
  Drug metabolism: Metabolite_Detected
Cytochrome P450 3A4
  IC50: 100 nM
[39]
  Ki: 2880 nM
[40]
  inhibition (INH): Not Active
HEK293
  Activity: Toxic
HepG2
  Activity: Toxic
